Experimental data published in ChEMBL document CHEMBL2010718, “Human kallikrein 6 inhibitors with a para-amidobenzylanmine P1 group identified through virtual screening” (Bioorg Med Chem Lett, 2012).
pIC50, pKi: −log10 of the molar value.

How the values were obtained:
Kallikrein-1 = Kallikrein-1 (Homo sapiens, UniProt P06870); assay: Inhibition of human kallikrein 1
[1] = molecular target: T1, Prostate-specific antigen (Homo sapiens, UniProt P07288); assay: Inhibition of human kallikrein 3
T1 sequence (P07288 whole entry): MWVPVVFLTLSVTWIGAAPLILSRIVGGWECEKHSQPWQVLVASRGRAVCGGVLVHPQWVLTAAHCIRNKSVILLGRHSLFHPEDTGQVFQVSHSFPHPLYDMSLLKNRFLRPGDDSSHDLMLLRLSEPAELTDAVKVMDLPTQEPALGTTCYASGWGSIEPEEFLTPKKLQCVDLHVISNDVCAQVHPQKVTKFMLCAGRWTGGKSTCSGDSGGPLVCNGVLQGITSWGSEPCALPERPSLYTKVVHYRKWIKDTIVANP

Plasma kallikrein = Plasma kallikrein (Homo sapiens, UniProt P03952); assay: Inhibition of plasma kallikrein
Chain of Plasma kallikrein (P03952 20-390 limits assumed): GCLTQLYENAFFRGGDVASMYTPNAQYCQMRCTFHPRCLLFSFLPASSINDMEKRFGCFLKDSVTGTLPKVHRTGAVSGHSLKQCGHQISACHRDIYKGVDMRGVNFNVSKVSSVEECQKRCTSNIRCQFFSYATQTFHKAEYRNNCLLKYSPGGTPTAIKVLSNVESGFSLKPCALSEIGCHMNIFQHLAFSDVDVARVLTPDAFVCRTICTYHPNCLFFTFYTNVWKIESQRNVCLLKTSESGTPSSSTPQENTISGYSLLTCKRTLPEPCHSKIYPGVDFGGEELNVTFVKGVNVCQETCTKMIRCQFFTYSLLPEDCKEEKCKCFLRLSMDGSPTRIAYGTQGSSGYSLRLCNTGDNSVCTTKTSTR
Chain of Plasma kallikrein (P03952 391-638 limits assumed): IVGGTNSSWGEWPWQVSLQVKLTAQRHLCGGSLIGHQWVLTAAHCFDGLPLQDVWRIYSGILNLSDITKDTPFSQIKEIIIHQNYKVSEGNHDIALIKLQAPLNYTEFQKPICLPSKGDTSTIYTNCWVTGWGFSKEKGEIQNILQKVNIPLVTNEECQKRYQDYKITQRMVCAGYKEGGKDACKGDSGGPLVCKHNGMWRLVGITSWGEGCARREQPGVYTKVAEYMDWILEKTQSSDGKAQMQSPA

Chain of Kallikrein-1 (P06870 whole entry): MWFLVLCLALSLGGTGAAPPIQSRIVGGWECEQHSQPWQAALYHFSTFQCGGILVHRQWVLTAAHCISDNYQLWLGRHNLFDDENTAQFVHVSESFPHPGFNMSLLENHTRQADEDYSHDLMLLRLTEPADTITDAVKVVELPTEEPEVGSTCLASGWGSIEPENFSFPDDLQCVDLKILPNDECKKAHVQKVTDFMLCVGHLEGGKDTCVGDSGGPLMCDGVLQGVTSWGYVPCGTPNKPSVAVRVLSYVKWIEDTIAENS

Row | pKi (Kallikrein-1) | Structure (SMILES) | also measured
1 | 6.09 | N=C(N)c1cc(Br)c(OCCCCCOc2c(Br)cc(C(=N)N)cc2Br)c(Br)c1 | –
2 | 7.51 | N=C(N)c1ccc(OCc2ccc(COc3ccc(C(=N)N)cc3I)cc2)c(I)c1 | –
3 | – | O=C(OCc1ccccc1)c1cccc(OC(=O)N2C(=O)[C@@H](Cc3ccc(O)cc3)[C@H]2C(=O)OCc2ccccc2)c1 | pIC50 [1]: 6.65
4 | – | NC[C@H]1CC[C@H](C(=O)NC(Cc2ccc(Oc3ncccn3)cc2)C(=O)Nc2cccc(C(=O)O)c2)CC1 (some centres undefined) | pIC50 (Plasma kallikrein): 6.15
